In US20090192187A1, “DRY POWDER FORMULATION COMPRISING AN ANTIC[…]” (Chiesi Farmaceutici S.p.A., priority 2008, published 2009):
Counter-ions that a name gives are not always drawn.

Assays:
[1] = Estimation of lung levels after nebulisation; format: in vivo, guinea pig; conditions: nebulisation with submaximal bronchodilator activity, 2 hours after treatment
[2] = tested on: Ach-induced increase in Penh (airway reactivity); experiment: Bronchodilation activity: barometric plethysmography, acetylcholine challenge after nebulised compound; format: in vivo, guinea pig; conditions: for bronchoprotective effect: twenty-four hours
Procedure: Airway reactivity is measured using barometric plethysmography (Buxco, USA). Male guinea pigs (500-600 g) are individually placed in plexiglass chambers. After an acclimatisation period, animals are exposed to nebulised saline for 1 minute to obtain airway baseline reading. This is followed by a 1 minute challenge with nebulised acetylcholine (Ach)-2.5 mg/mL. After 60 minutes, 5 minute nebulisation of vehicle or the compound I′ in the range 2.5-250 μM are applied, and Ach challenge is then repeated after 2, 5, 24, 48 and 72 hours (h). Recording of pressure fluctuations in the chambers are taken for 5 minutes after each nebulisation and analysed to calculate Enhanced Pause (Penh). Airway reactivity is expressed as percentage increase in Penh compared with Penh values from the nebulisation of vehicle.

M2 muscarinic receptors = target: T1, M2 muscarinic receptors (Homo sapiens, UniProt P08172); experiment: Duration of action / dissociation kinetics at M2 receptors; conditions: compared with tiotropium bromide
T1 sequence (P08172 1-466): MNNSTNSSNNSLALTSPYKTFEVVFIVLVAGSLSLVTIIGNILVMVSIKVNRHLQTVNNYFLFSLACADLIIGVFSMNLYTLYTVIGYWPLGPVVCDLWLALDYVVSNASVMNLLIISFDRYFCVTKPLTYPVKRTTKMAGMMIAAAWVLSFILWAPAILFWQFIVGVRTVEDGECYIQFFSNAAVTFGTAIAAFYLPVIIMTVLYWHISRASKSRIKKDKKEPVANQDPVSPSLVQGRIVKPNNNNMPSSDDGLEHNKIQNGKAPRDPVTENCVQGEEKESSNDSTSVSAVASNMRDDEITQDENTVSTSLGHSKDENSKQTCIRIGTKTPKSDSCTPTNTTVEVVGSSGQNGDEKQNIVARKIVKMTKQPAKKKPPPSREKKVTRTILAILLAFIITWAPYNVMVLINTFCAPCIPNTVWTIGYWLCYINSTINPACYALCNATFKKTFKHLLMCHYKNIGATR

muscarinic receptors = experiment: Receptor potency and duration of action compared with tiotropium bromide

Molecule | retained dose in the target organ (lung) [1] | bronchoprotective effect ([2]; 25 μM inhaled) | inhibition ([2]; 50 μM inhaled, 48 hours) | bronchoprotective effect ([2]; 50 μM inhaled) | maximal effect, inhibition of Ach-induced increase in Penh ([2]; 50 μM nebulised, two hours after end of nebulisation) | effect (inhibition of Ach-induced increase in Penh) ([2]; 250 μM inhaled, 48 hours) | residual activity ([2]; 250 μM inhaled, 72 hours) | time-course of the effect (duration of action) ([2]; increasing dose) | duration of effect ([2]; inhalation of lower concentrations (below 25 μM)) | dose dependence of inhibition of Ach-induced increase in Penh ([2]; two hours after end of nebulisation, 2.5-250 μM) | duration of action on the M2 receptors (M2 muscarinic receptors) | duration of action (muscarinic receptors) | receptor potency (muscarinic receptors)
3-[[[(3-fluorophenyl)[(3,4,5-trifluoro phenyl)methyl]amino]carbonyl]oxy]-1-[2-oxo-2-(2-thienyl)ethyl]-1-azoniabicyclo[2.2.2]octane [compound 1′] | about 50 μg/kg | 63.7±15.1% | 49.2±23.2% | 87.1±8.7% | 99.6±0.4 | 83.0±16.1% | 34.8±20.9% | increasing duration of action with increasing dose | ≤ 5 h | dose-dependently inhibited |  |  | 
O=C(C[N+]12CCC(CC1)C(OC(=O)N(Cc1cc(F)c(F)c(F)c1)c1cccc(F)c1)C2)c1cccs1 (stereo not shown) [chloride salt of compound 1, 3-[[[(3-fluorophenyl)[(3,4,5-trifluorophenyl)methyl]amino]carbonyl]oxy]-1-[2-oxo-2-(2-thienyl)ethyl]-1-azoniabicyclo[2.2.2]octane] |  |  |  |  |  |  |  |  |  |  | significantly short-acting | equieffective to tiotropium bromide | equieffective to tiotropium bromide
